From PMC2614347, “A Novel Peptide Enhances Therapeutic Efficacy of Liposomal Anti-Cancer Drugs in Mice Models of Human Lung Cancer” (PLoS ONE, 2009)
Ends that are not written are not given here.

Columns and labels:
CL1-5-derived tumors = assay: In vivo homing and tissue distribution of phages; design: species or system SCID mice
Protocol: SCID mice were injected subcutaneously (s.c.) in the dorsolateral flank with 1×10^7 human NSCLC cells. The mice bearing size-matched lung cancer xenografts (approximately 500 mm^3) were injected i.v. with 10^9 pfu of the targeting or control phage. After perfusion, xenograft tumors and mouse organs were removed and homogenized. The phages bound to each tissue sample were recovered through the addition of ER2738 bacteria and titered on IPTG/X-Gal agar plates. In the peptide competitive inhibition experiments, the phages were injected along with 100 µg synthetic targeting peptide, control peptide or mutant peptide. The organs and tumor masses were fixed in Bouin's solution (Sigma, MO, USA). After fixation, the samples were embedded in paraffin blocks. The paraffin sections were deparaffinized, rehydrated, and subjected to immunostaining using the mouse M13 mAb as described above.

CL1-5 cells [1] = assay: Phage binding and peptide competition, flow cytometry; design: species or system human; conditions: fraction of cells gated for positive binding
Protocol: (§1) The lung and other cancer cell lines were collected using PBS containing 50 mM EDTA, then incubated with phages or FITC-labeled peptides. For the peptide competitive inhibition assay, phages were mixed with different concentrations of the synthetic peptide and the mixture was incubated with the cells. After washing, the phage-bound cells were incubated with anti-M13 mAbs and then treated with FITC-conjugated goat anti-mouse IgG antibody. Cells were washed and analyzed with a flow cytometer (Becton Dickinson)
(§2) Fig. S2. The binding activity of PC5-2 to NSCLC cells was analyzed by flow cytometry. The samples included cells only (a, green), control phage (b, red), and PC5-2 (blue). The percentages indicate the fraction of cells gated for positive binding (c).

NPC-TW01 cells = assay: Phage binding, immunofluorescent staining; design: species or system human
[2] = system: nasopharyngeal carcinoma cells (NPC-TW01); assay: Phage binding to cells, immunohistochemical staining; design: species or system human; conditions: immunohistochemistry, anti-M13 mAb
Protocol: (§3) Cells were plated and grown to about 80% confluence on cover slips. The cover slips were treated with 3% hydrogen peroxide plus 0.1% NaN3 to block endogenous peroxidase activity, and then incubated with phages. After the cover slips had been washed and fixed with 3% paraformaldehyde, they were incubated with HRP-labeled mouse anti-M13 mAb and treated with peroxidase substrate. For the peptide binding assays, 30 µg/ml FITC-labeled SP5-2 or control peptide was added on each cover slip and incubated. They were counterstained with Hoechst 33258 (Molecular Probes, OR, USA) and mounted with a mounting solution (Vector, CA, USA). The cells were then examined under a Leica universal microscope. The images were merged using the SimplePCI software (C-IMAGING, PA, USA).

[3] = system: normal epithelial cells (NNM) from nasal mucosa; assay: as above; design: species or system human; conditions: immunohistochemistry, anti-M13 mAb
Protocol: as §3

PC13 cells [4] = assay: as above; design: species or system human; conditions: immunohistochemistry, anti-M13 mAb
Protocol: as §3

oral cancer (SAS) cells = assay: as above; design: species or system human; conditions: immunohistochemistry, anti-M13 mAb
Protocol: as §3

CL1-5 cells [5] = assay: as above; design: species or system human; conditions: immunohistochemistry, anti-M13 mAb
Protocol: as §3

NNM cells = assay: Phage binding, flow cytometry; design: species or system human
Protocol: as §1, §2

SAS cells = assay: Phage binding, flow cytometry; design: species or system human
Protocol: as §1, §2

[6] = system: surgical specimens of human lung cancer (pulmonary adenocarcinoma); assay: Binding of phages and synthetic peptides to surgical specimens of lung cancer, immunohistochemistry
Protocol: For localization of peptide binding on lung cancer tissues, frozen sections of NSCLC tissues were prepared and incubated with phage clones or biotin-labeled peptides. For the peptide competitive inhibition assay, phages were mixed with the synthetic targeting or mutant peptide. The slides were subjected to routine immunohistochemical staining, [30]. All surgical specimens were obtained from the tissue bank of National Taiwan University Hospital (NTUH) with approval from the Institutional Review Board in NTUH (IRB9461702021).

CL1-5 cells [7] = system: CL1-5 cells
Protocol: (§4) FITC-labeled SP5-2 binding to NSCLC cells was analyzed by flow cytometry.

PC13 cells [8] = system: PC13 cells
Protocol: as §4

H460-derived xenografts = assay: Ligand-targeted therapy of lung cancer xenografts; format: in vivo, SCID mice; conditions: doxorubicin 1 mg/kg i.v. twice a week, eight injections
NSCLC xenografts = assay: Doxorubicin autofluorescence microscopy of tumor sections; format: in vivo, SCID mice; conditions: fluorescence microscope; 1, 4 and 24 hours post-injection
From the text: Tissue sections were imaged with a FLUAR 10×/0.50 NA lens and captured with a Roper Scientific CoolSnap HQ CCD camera. All images were captured in 8-bit signal depth and subsequently pseudo-colored.

CL1-5-derived xenografts = assay: Ligand-targeted therapy of lung cancer xenografts; format: in vivo, SCID mice; conditions: doxorubicin 1 mg/kg i.v. twice a week, eight injections; n = 6
Protocol: Mice 4–6 weeks of age were injected s.c. in the dorsolateral flank with human NSCLC cells. […] Mouse body weights and tumor sizes were measured twice a week. Tumor volumes were calculated using the equation: length×(width)^2×0.52. Animal care was carried out in accordance with guidelines of Academia Sinica, Taiwan.

[9] = Pharmacokinetic and biodistribution study of doxorubicin formulations; format: in vivo, SCID mice; conditions: 2 mg/kg i.v., n = 3 per time point
Protocol: At selected time points, three mice in each group were anaesthetized and sacrificed. Blood samples were collected through submaxillary punctures, and plasma samples were prepared. After perfusion, xenograft tumors and mouse organs were removed and homogenized.

Protocol for A549 cells: as §4
Protocol for H23 cells: as §4
Protocol for H460 cells: as §4

## DMPKQLLAPWYY [PC5-4, phage clone displaying […]]
CL1-5-derived tumors; i.v., recovered after perfusion, SCID mice bearing NSCLC xenografts (Fig. S4)
  Recovery of PC5-4 phage from tumor versus control organs: higher than from control organs

## TDSILRSYDWTY [PC5-2]
CL1-5 cells [1]
  CL1-5 cells bound by phage: 42.6%
NPC-TW01 cells
  Binding of phage to NPC-TW01 cells: did not bind
[2]
  Binding of phage to NPC-TW01 cells: bound neither
[3]
  Binding of phage to NNM cells: nor to normal epithelial cells
PC13 cells [4]
  Binding of phage to PC13 cells: bound specifically
Oral cancer (SAS) cells
  Binding of phage to SAS cells: bound neither
CL1-5 cells [5]
  Binding of phage to CL1-5 cells: bound specifically
NNM cells
  Binding of phage to NNM cells: did not bind
SAS cells
  Binding of phage to SAS cells: did not bind
CL1-5-derived tumors; brain, heart and lung tissues
  Immunohistochemical localization of phage in normal organs after i.v. injection: no reaction product detected
CL1-5-derived tumors; i.v. 10^9 pfu, recovered after perfusion, control organs brain, heart and lungs
  Phage concentration in tumor masses relative to control organs: 15 fold
CL1-5-derived tumors; tumor sections, anti-M13 mAb
  Immunohistochemical localization of phage in tumor tissues after i.v. injection: localize in tumor tissues
[6]; frozen sections
  Recognition of tumor cells of NSCLC surgical specimens: recognized
[6]; human lung cancer surgical specimen HLC 1
  Reaction area, HLC 1: +++ (>50%)
[6]; human lung cancer surgical specimen HLC 2
  Reaction area, HLC 2: +++ (>50%)
[6]; human lung cancer surgical specimen HLC 3
  Reaction area, HLC 3: - (0%)
[6]; human lung cancer surgical specimen HLC 4
  Reaction area, HLC 4: + (<20%)
[6]; human lung cancer surgical specimen HLC 5
  Reaction area, HLC 5: +++ (>50%)
[6]; human lung cancer surgical specimen HLC 6
  Reaction area, HLC 6: ++ (50~20%)
[6]; human lung cancer surgical specimen HLC 7
  Reaction area, HLC 7: ++ (50~20%)
[6]; human lung cancer surgical specimen HLC 8
  Reaction area, HLC 8: ++ (50~20%)
[6]; human lung cancer surgical specimen HLC 9
  Reaction area, HLC 9: + (<20%)
[6]; human lung cancer surgical specimen HLC 10
  Reaction area, HLC 10: - (0%)
[6]; human lung cancer surgical specimen HLC 11
  Reaction area, HLC 11: ++ (50~20%)
[6]; human lung cancer surgical specimen HLC 12
  Reaction area, HLC 12: ++ (50~20%)
[6]; human lung cancer surgical specimen HLC 13
  Reaction area, HLC 13: + (<20%)
[6]; human lung cancer surgical specimen HLC 14
  Reaction area, HLC 14: - (0%)
[6]; human lung cancer surgical specimen HLC 15
  Reaction area, HLC 15: +++ (>50%)
[6]; human lung cancer surgical specimen HLC 16
  Reaction area, HLC 16: - (0%)
[6]; human lung cancer surgical specimen HLC 17
  Reaction area, HLC 17: - (0%)
[6]; human lung cancer surgical specimen HLC 18
  Reaction area, HLC 18: ++ (50~20%)
[6]; human lung cancer surgical specimen HLC 19
  Reaction area, HLC 19: +++ (>50%)
[6]; human lung cancer surgical specimen HLC 20
  Reaction area, HLC 20: +++ (>50%)
[6]; human lung cancer surgical specimen HLC 21
  Reaction area, HLC 21: ++ (50~20%)
[6]; human lung cancer surgical specimen HLC 22
  Reaction area, HLC 22: - (0%)
[6]; human lung cancer surgical specimen HLC 23
  Reaction area, HLC 23: - (0%)
[6]; human lung cancer surgical specimen HLC 24
  Reaction area, HLC 24: ++ (50~20%)
[6]; human lung cancer surgical specimen HLC 25
  Reaction area, HLC 25: +++ (>50%)
[6]; human lung cancer surgical specimen HLC 26
  Reaction area, HLC 26: +++ (>50%)
[6]; human lung cancer surgical specimen HLC 27
  Reaction area, HLC 27: + (<20%)
[6]; human lung cancer surgical specimen HLC 28
  Reaction area, HLC 28: ++ (50~20%)
[6]; human lung cancer surgical specimen HLC 29
  Reaction area, HLC 29: - (0%)
[6]; human lung cancer surgical specimen HLC 30
  Reaction area, HLC 30: ++ (50~20%)
[6]; human lung cancer surgical specimen HLC 31
  Reaction area, HLC 31: ++ (50~20%)
[6]; human lung cancer surgical specimen HLC 32
  Reaction area, HLC 32: - (0%)
[6]; human lung cancer surgical specimen HLC 33
  Reaction area, HLC 33: ++ (50~20%)
[6]; human lung cancer surgical specimen HLC 34
  Reaction area, HLC 34: +++ (>50%)
[6]; human lung cancer surgical specimen HLC 35
  Reaction area, HLC 35: + (<20%)
[6]; human lung cancer surgical specimen HLC 36
  Reaction area, HLC 36: ++ (50~20%)

## TDSILRSYDWTY [SP5-2]
CL1-5 cells [7]
  Proportion of CL1-5 cells bound by SP5-2: 43.0%
H23 cells
  Proportion of H23 cells bound by SP5-2: 44.0%
H460 cells
  Proportion of H460 cells bound by SP5-2: 45.8%
PC13 cells [8]
  Proportion of PC13 cells bound by SP5-2: 20.1%
A549 cells
  Proportion of A549 cells bound by SP5-2: 44.3%

## COc1cccc2c1C(=O)c1c(O)c3c(c(O)c1C2=O)C[C@@](O)(C(=O)CO)C[C@@H]3O[C@H]1C[C@H](N)[C@H](O)[C@H](C)O1 [FD, doxorubicin]
H460-derived xenografts
  Reduction of tumor size compared with PBS group: 14%
NSCLC xenografts
  Areas of tumor sections with detectable doxorubicin: no detectable doxorubicin
CL1-5-derived xenografts
  Tumor size smaller than that in the PBS group: 16%
[9]; tail vein, spectrofluorometry
  Blood concentration of doxorubicin after administration: drops to background level within one hour
[9]; nuclear doxorubicin in tumor
  AUC0-48 h, Nuclear: 3.7 μg h/g tumor
[9]; tumor cell nuclei, spectrofluorometry
  AUC0–48 hours of bioavailable doxorubicin (bound to nuclei): 3.7 µg·h/g
